Measurements from patent publication US8357413B2, “Process for the disinfection and/or preservation of harvested plant material” (Solvay (Societe Anonyme), priority 2003, dated 2013).

Test system: aerobic micro-organism activity
Assay: Example 4: aerobic stability of forage (temperature rise in insulated boxes)
Experimental: The treatments shown in examples 1 and 2 were also evaluated for their aerobic stability i.e. under conditions representing opening of the clamp to use the forage as feed thus allowing air to enter the clamp. In this case comparisons were made with untreated forage as in examples 1 and 2 and also with forage treated with a typical acid product, formic acid (85% w/w) applied at 2.5 liters per tonne of grass. 750 g of the forages were stored in insulated boxes placed in a controlled environment at 20-22° C. A temperature probe was inserted into each box linked to a data logger to monitor temperature changes hourly over a 6 day period.

## O=CO [Formic Acid, formic acid]
750 g forage in insulated boxes at 20-22° C., Day 0
  Temperature Day 0: 17.8 °C
750 g forage in insulated boxes at 20-22° C., Day 6
  Temperature Day 6: 20.5 °C
Day 0 to Day 6
  Temperature increase: +2.7 °C
